Reference: ChEMBL document CHEMBL4431341, “Synthesis and anticancer activity of a hydroxytolan series” (Bioorg Med Chem Lett, 2016)
Calls of active or inactive are those of the source. The rule behind the calls is not given here.

What was measured:
[1] = Selectivity index, ratio of CD50 against human MHRF cells to CD50 for human T24 cells after 48 hrs
T-24 [2] = experiment: Potency index, ratio of CD50 for RES to CD50 for test compound against human T24 cells after 24 hrs; format: functional
DU-145 [3] = experiment: Potency index, ratio of CD50 for RES to CD50 for test compound against human DU145 cells after 24 hrs; format: functional
T-24 [4] = experiment: Cytotoxicity against human T24 cells after 72 hrs by MTT assay; format: functional; settings: T-24, 72 h, read-out: CD50 (the source's name)
DU-145 [5] = experiment: Cytotoxicity against human DU145 cells assessed as inhibition of cell viability at 2 to 500 uM after 24 hrs in presence of CAT by MTT assay; format: functional, cell-based
[6] = Ratio of CD50 for test compound to CD50 for RES against human MHRF cells after 48 hrs; format: ADME, cell-based
MDAH 2774 [7] = experiment: Cytotoxicity against human MDAH 2774 cells after 72 hrs by MTT assay; format: functional; settings: MDAH 2774, 72 h, read-out: CD50 (the source's name)
T-24 [8] = experiment: Cytotoxicity against human T24 cells after 24 hrs by MTT assay; format: functional; settings: T-24, 24 h, read-out: CD50 (the source's name)
MDAH 2774 [9] = experiment: Potency index, ratio of CD50 for RES to CD50 for test compound against human MDAH 2774 cells after 72 hrs; format: functional
[10] = Ratio of CD50 for test compound to CD50 for RES against human MHRF cells after 72 hrs; format: ADME, cell-based
T-24 [11] = experiment: Potency index, ratio of CD50 for RES to CD50 for test compound against human T24 cells after 72 hrs; format: functional
T-24 [12] = experiment: Cytotoxicity against human T24 cells after 48 hrs by MTT assay; format: functional; settings: T-24, 48 h, read-out: CD50 (the source's name)
[13] = Selectivity index, ratio of CD50 against human MHRF cells to CD50 for human DU145 cells after 72 hrs
[14] = Cytotoxicity against human MHRF cells after 72 hrs by MTT assay; format: cell-based; settings: read-out: CD50
[15] = Selectivity index, ratio of CD50 against human MHRF cells to CD50 for human MDAH 2774 cells after 48 hrs
DU-145 [16] = experiment: Pro-oxidative activity in human DU145 cells assessed as increase in H2O2 mediated DCF formation at 25 to 100 uM preincubated with DCFH-DA for 30 mins followed by compound treatment for 3 hrs by fluorescence analysis; format: functional, cell-based
DU-145 [17] = experiment: Cytotoxicity against human DU145 cells after 24 hrs by MTT assay; format: functional; settings: DU-145, 24 h, read-out: CD50 (the source's name)
[18] = Cytotoxicity against human MHRF cells after 24 hrs by MTT assay; format: cell-based; settings: read-out: CD50
MDAH 2774 [19] = experiment: Cytotoxicity against human MDAH 2774 cells after 48 hrs by MTT assay; format: functional; settings: MDAH 2774, 48 h, read-out: CD50 (the source's name)
MDAH 2774 [20] = experiment: Cytotoxicity against human MDAH 2774 cells after 24 hrs by MTT assay; format: functional; settings: MDAH 2774, 24 h, read-out: CD50 (the source's name)
T-24 [21] = experiment: Potency index, ratio of CD50 for RES to CD50 for test compound against human T24 cells after 48 hrs; format: functional
DU-145 [22] = experiment: Potency index, ratio of CD50 for RES to CD50 for test compound against human DU145 cells after 48 hrs; format: functional
[23] = Lipophilicity, log P of the compound; format: physicochemical; settings: octanol/water
MDAH 2774 [24] = experiment: Potency index, ratio of CD50 for RES to CD50 for test compound against human MDAH 2774 cells after 48 hrs; format: functional
[25] = Selectivity index, ratio of CD50 against human MHRF cells to CD50 for human T24 cells after 72 hrs
DU-145 [26] = experiment: Cytotoxicity against human DU145 cells assessed as inhibition of cell viability at 2 to 500 uM after 24 hrs by MTT assay; format: functional, cell-based
DU-145 [27] = experiment: Potency index, ratio of CD50 for RES to CD50 for test compound against human DU145 cells after 72 hrs; format: functional
MDAH 2774 [28] = experiment: Potency index, ratio of CD50 for RES to CD50 for test compound against human MDAH 2774 cells after 24 hrs; format: functional
[29] = Selectivity index, ratio of CD50 against human MHRF cells to CD50 for human T24 cells after 24 hrs
[30] = Ratio of CD50 for test compound to CD50 for RES against human MHRF cells after 24 hrs; format: ADME, cell-based
[31] = Cytotoxicity against human MHRF cells after 48 hrs by MTT assay; format: cell-based; settings: read-out: CD50
DU-145 [32] = experiment: Cytotoxicity against human DU145 cells after 72 hrs by MTT assay; format: functional; settings: DU-145, 72 h, read-out: CD50 (the source's name)
[33] = Selectivity index, ratio of CD50 against human MHRF cells to CD50 for human DU145 cells after 24 hrs
[34] = Selectivity index, ratio of CD50 against human MHRF cells to CD50 for human MDAH 2774 cells after 24 hrs
[35] = Selectivity index, ratio of CD50 against human MHRF cells to CD50 for human MDAH 2774 cells after 72 hrs
[36] = Selectivity index, ratio of CD50 against human MHRF cells to CD50 for human DU145 cells after 48 hrs
DU-145 [37] = experiment: Cytotoxicity against human DU145 cells after 48 hrs by MTT assay; format: functional; settings: DU-145, 48 h, read-out: CD50 (the source's name)

Oc1ccc(C#Cc2ccc(O)cc2)cc1
Selectivity Index [1]: 6.2
Ratio (T-24 [2]): 2.5
Ratio (DU-145 [3]): 2
CC50 (T-24 [4]): 8.5 µM
inhibition (DU-145 [5]): inactive
selectivity ratio at 48 h [6]: 0.3
CC50 (MDAH 2774 [7]): 3.1 µM
CC50 (T-24 [8]): 82.6 µM
Ratio (MDAH 2774 [9]): 4.7
Ratio [10]: 0.2
Ratio (T-24 [11]): 2.7
CC50 (T-24 [12]): 31.1 µM
Selectivity Index [13]: 27.3
CC50 at 72 h [14]: 153 µM
Selectivity Index [15]: 18.5
Activity (DU-145 [16]): Active
CC50 (DU-145 [17]): 46.7 µM
CC50 at 24 h [18]: 299 µM
CC50 (MDAH 2774 [19]): 10.5 µM
CC50 (MDAH 2774 [20]): 21.5 µM
Ratio (T-24 [21]): 2
Ratio (DU-145 [22]): 4.6
logP [23]: 2.3
Ratio (MDAH 2774 [24]): 2.2
Selectivity Index [25]: 18
inhibition (DU-145 [26]): Active
Ratio (DU-145 [27]): 5
Ratio (MDAH 2774 [28]): 1.7
Selectivity Index [29]: 3.6
selectivity ratio at 24 h [30]: 0.5
CC50 at 48 h [31]: 194 µM
CC50 (DU-145 [32]): 5.6 µM
Selectivity Index [33]: 6.4
Selectivity Index [34]: 13.9
Selectivity Index [35]: 49.3
Selectivity Index [36]: 15.4
CC50 (DU-145 [37]): 12.6 µM

Oc1ccc(C#Cc2cc(O)cc(O)c2)cc1
Selectivity Index [1]: 4.8
Ratio (T-24 [2]): 2.3
Ratio (DU-145 [3]): 1.7
CC50 (T-24 [4]): 24.3 µM
selectivity ratio at 48 h [6]: 0.3
CC50 (MDAH 2774 [7]): 20.4 µM
CC50 (T-24 [8]): 92.2 µM
Ratio (MDAH 2774 [9]): 0.7
Ratio [10]: 0.2
Ratio (T-24 [11]): 1
CC50 (T-24 [12]): 41.1 µM
Selectivity Index [13]: 8.6
CC50 at 72 h [14]: 175 µM
Selectivity Index [15]: 7.5
CC50 (DU-145 [17]): 55.7 µM
CC50 at 24 h [18]: 295 µM
CC50 (MDAH 2774 [19]): 26.4 µM
CC50 (MDAH 2774 [20]): 54.1 µM
Ratio (T-24 [21]): 1.5
Ratio (DU-145 [22]): 1.6
logP [23]: 1.85
Ratio (MDAH 2774 [24]): 0.9
Selectivity Index [25]: 7.2
Ratio (DU-145 [27]): 1.4
Ratio (MDAH 2774 [28]): 0.7
Selectivity Index [29]: 3.2
selectivity ratio at 24 h [30]: 0.5
CC50 at 48 h [31]: 198 µM
CC50 (DU-145 [32]): 20.3 µM
Selectivity Index [33]: 5.3
Selectivity Index [34]: 5.5
Selectivity Index [35]: 8.6
Selectivity Index [36]: 5.3
CC50 (DU-145 [37]): 37.4 µM

Oc1cc(O)cc(C#Cc2cc(O)cc(O)c2)c1
Selectivity Index [1]: 4.1
Ratio (T-24 [2]): 4.7
Ratio (DU-145 [3]): 1.6
CC50 (T-24 [4]): 20.1 µM
selectivity ratio at 48 h [6]: 0.5
CC50 (MDAH 2774 [7]): 16.8 µM
CC50 (T-24 [8]): 44.7 µM
Ratio (MDAH 2774 [9]): 0.9
Ratio [10]: 0.5
Ratio (T-24 [11]): 1.1
CC50 (T-24 [12]): 27.3 µM
Selectivity Index [13]: 4
CC50 at 72 h [14]: 66.9 µM
Selectivity Index [15]: 5.2
CC50 (DU-145 [17]): 57 µM
CC50 at 24 h [18]: 156 µM
CC50 (MDAH 2774 [19]): 21.5 µM
CC50 (MDAH 2774 [20]): 31.4 µM
Ratio (T-24 [21]): 2.3
Ratio (DU-145 [22]): 1.8
Ratio (MDAH 2774 [24]): 0.7
Selectivity Index [25]: 3.3
Ratio (DU-145 [27]): 5
Ratio (MDAH 2774 [28]): 1.7
Selectivity Index [29]: 3.5
selectivity ratio at 24 h [30]: 1
CC50 at 48 h [31]: 113 µM
CC50 (DU-145 [32]): 17 µM
Selectivity Index [33]: 2.7
Selectivity Index [34]: 5
Selectivity Index [35]: 4
Selectivity Index [36]: 3.6
CC50 (DU-145 [37]): 31.6 µM

Oc1ccc(/C=C/c2cc(O)cc(O)c2)cc1 [RESVERATROL]
CC50 (T-24 [4]): 22.7 µM
inhibition (DU-145 [5]): inactive
CC50 (MDAH 2774 [7]): 14.6 µM
CC50 (T-24 [8]): 210 µM
CC50 (T-24 [12]): 61.8 µM
CC50 at 72 h [14]: 32 µM
Activity (DU-145 [16]): inactive
CC50 (DU-145 [17]): 92.2 µM
CC50 at 24 h [18]: 155 µM
CC50 (MDAH 2774 [19]): 23 µM
CC50 (MDAH 2774 [20]): 36.9 µM
logP [23]: 1.85
inhibition (DU-145 [26]): inactive
CC50 at 48 h [31]: 50.9 µM
CC50 (DU-145 [32]): 27.9 µM
CC50 (DU-145 [37]): 58.2 µM
